{"source": "ChEMBL document CHEMBL5724914", "about": "“Linking interpersonal differences in gut microbiota composition and drug biotransformation activity” (2024); note: call rule not given here"}
{"settings": "human gut metagenome, 24 h, 2 µM"}
{"smiles": "CNCCC(Oc1ccc(C(F)(F)F)cc1)c1ccccc1", "note": "(stereo not given) [FLUOXETINE]", "Bacterial Biotransformation": "Compound NOT metabolized"}
{"smiles": "CCc1nc(N)nc(N)c1-c1ccc(Cl)cc1", "note": "[PYRIMETHAMINE]", "Bacterial Biotransformation": "Compound metabolized"}
{"experiment": "(§1) The drug is tested on WLS-006 corresponding to human gut metagenome with ENA study accession number: PRJEB37062 and ENA sample accession number: ERS12561741 for biotransformation under anaerobic condition. The drug concentrations were measured over 9 timepoints collected between 0 and 24 hours of incubation by liquid-chromatography-coupled mass spectrometry (LC–MS)", "settings": "2 µM"}
{"smiles": "CNCCC(Oc1ccc(C(F)(F)F)cc1)c1ccccc1", "note": "(stereo not given) [FLUOXETINE]", "Bacterial Biotransformation": "Compound NOT metabolized"}
{"smiles": "CCc1nc(N)nc(N)c1-c1ccc(Cl)cc1", "note": "[PYRIMETHAMINE]", "Bacterial Biotransformation": "Compound NOT metabolized"}
{"experiment": "as §1, with “Z-009” for “WLS-006”, “pig” for “human”, “ERS12561809” for “ERS12561741”", "settings": "2 µM"}
{"smiles": "CNCCC(Oc1ccc(C(F)(F)F)cc1)c1ccccc1", "note": "(stereo not given) [FLUOXETINE]", "Bacterial Biotransformation": "Compound NOT metabolized"}
{"smiles": "CCc1nc(N)nc(N)c1-c1ccc(Cl)cc1", "note": "[PYRIMETHAMINE]", "Bacterial Biotransformation": "Compound NOT metabolized"}
{"settings": "human gut metagenome, 24 h, 2 µM", "remark": "another data set of the same source"}
{"smiles": "CNCCC(Oc1ccc(C(F)(F)F)cc1)c1ccccc1", "note": "(stereo not given) [FLUOXETINE]", "Bacterial Biotransformation": "Compound NOT metabolized"}
{"smiles": "CCc1nc(N)nc(N)c1-c1ccc(Cl)cc1", "note": "[PYRIMETHAMINE]", "Bacterial Biotransformation": "Compound NOT metabolized"}
{"experiment": "as §1, with “Z-001” for “WLS-006”, “mouse” for “human”, “ERS12561801” for “ERS12561741”", "settings": "2 µM"}
{"smiles": "CNCCC(Oc1ccc(C(F)(F)F)cc1)c1ccccc1", "note": "(stereo not given) [FLUOXETINE]", "Bacterial Biotransformation": "Compound NOT metabolized"}
{"smiles": "CCc1nc(N)nc(N)c1-c1ccc(Cl)cc1", "note": "[PYRIMETHAMINE]", "Bacterial Biotransformation": "Compound NOT metabolized"}
{"experiment": "as §1, with “WLS-082” for “WLS-006”, “ERS12561751” for “ERS12561741”", "settings": "2 µM"}
{"smiles": "CNCCC(Oc1ccc(C(F)(F)F)cc1)c1ccccc1", "note": "(stereo not given) [FLUOXETINE]", "Bacterial Biotransformation": "Compound NOT metabolized"}
{"smiles": "CCc1nc(N)nc(N)c1-c1ccc(Cl)cc1", "note": "[PYRIMETHAMINE]", "Bacterial Biotransformation": "Compound NOT metabolized"}
{"settings": "human gut metagenome, 24 h, 2 µM", "remark": "another data set of the same source"}
{"smiles": "CNCCC(Oc1ccc(C(F)(F)F)cc1)c1ccccc1", "note": "(stereo not given) [FLUOXETINE]", "Bacterial Biotransformation": "Compound NOT metabolized"}
{"smiles": "CCc1nc(N)nc(N)c1-c1ccc(Cl)cc1", "note": "[PYRIMETHAMINE]", "Bacterial Biotransformation": "Compound NOT metabolized"}
{"experiment": "as §1, with “Z-020” for “WLS-006”, “rabbit” for “human”, “ERS12561819” for “ERS12561741”", "settings": "2 µM"}
{"smiles": "CNCCC(Oc1ccc(C(F)(F)F)cc1)c1ccccc1", "note": "(stereo not given) [FLUOXETINE]", "Bacterial Biotransformation": "Compound NOT metabolized"}
{"smiles": "CCc1nc(N)nc(N)c1-c1ccc(Cl)cc1", "note": "[PYRIMETHAMINE]", "Bacterial Biotransformation": "Compound NOT metabolized"}
{"settings": "human gut metagenome, 24 h, 2 µM", "remark": "another data set of the same source"}
{"smiles": "CNCCC(Oc1ccc(C(F)(F)F)cc1)c1ccccc1", "note": "(stereo not given) [FLUOXETINE]", "Bacterial Biotransformation": "Compound NOT metabolized"}
{"smiles": "CCc1nc(N)nc(N)c1-c1ccc(Cl)cc1", "note": "[PYRIMETHAMINE]", "Bacterial Biotransformation": "Compound NOT metabolized"}
{"experiment": "as §1, with “Z-024” for “WLS-006”, “pig” for “human”, “ERS12561823” for “ERS12561741”", "settings": "2 µM"}
{"smiles": "CNCCC(Oc1ccc(C(F)(F)F)cc1)c1ccccc1", "note": "(stereo not given) [FLUOXETINE]", "Bacterial Biotransformation": "Compound NOT metabolized"}
{"smiles": "CCc1nc(N)nc(N)c1-c1ccc(Cl)cc1", "note": "[PYRIMETHAMINE]", "Bacterial Biotransformation": "Compound metabolized"}
{"experiment": "as §1, with “Z-028” for “WLS-006”, “mouse” for “human”, “ERS12561827” for “ERS12561741”", "settings": "2 µM"}
{"smiles": "CNCCC(Oc1ccc(C(F)(F)F)cc1)c1ccccc1", "note": "(stereo not given) [FLUOXETINE]", "Bacterial Biotransformation": "Compound NOT metabolized"}
{"smiles": "CCc1nc(N)nc(N)c1-c1ccc(Cl)cc1", "note": "[PYRIMETHAMINE]", "Bacterial Biotransformation": "Compound NOT metabolized"}
{"settings": "human gut metagenome, 24 h, 2 µM", "remark": "another data set of the same source"}
{"smiles": "CNCCC(Oc1ccc(C(F)(F)F)cc1)c1ccccc1", "note": "(stereo not given) [FLUOXETINE]", "Bacterial Biotransformation": "Compound NOT metabolized"}
{"smiles": "CCc1nc(N)nc(N)c1-c1ccc(Cl)cc1", "note": "[PYRIMETHAMINE]", "Bacterial Biotransformation": "Compound NOT metabolized"}
{"settings": "human gut metagenome, 24 h, 2 µM", "remark": "another data set of the same source"}
{"smiles": "CNCCC(Oc1ccc(C(F)(F)F)cc1)c1ccccc1", "note": "(stereo not given) [FLUOXETINE]", "Bacterial Biotransformation": "Compound NOT metabolized"}
{"smiles": "CCc1nc(N)nc(N)c1-c1ccc(Cl)cc1", "note": "[PYRIMETHAMINE]", "Bacterial Biotransformation": "Compound NOT metabolized"}
{"settings": "human gut metagenome, 24 h, 2 µM", "remark": "another data set of the same source"}
{"smiles": "CNCCC(Oc1ccc(C(F)(F)F)cc1)c1ccccc1", "note": "(stereo not given) [FLUOXETINE]", "Bacterial Biotransformation": "Compound NOT metabolized"}
{"smiles": "CCc1nc(N)nc(N)c1-c1ccc(Cl)cc1", "note": "[PYRIMETHAMINE]", "Bacterial Biotransformation": "Compound NOT metabolized"}
{"experiment": "as §1, with “Z-027” for “WLS-006”, “to” for “to human gut”, “ERS12561826” for “ERS12561741”", "settings": "2 µM"}
{"smiles": "CNCCC(Oc1ccc(C(F)(F)F)cc1)c1ccccc1", "note": "(stereo not given) [FLUOXETINE]", "Bacterial Biotransformation": "Compound NOT metabolized"}
{"smiles": "CCc1nc(N)nc(N)c1-c1ccc(Cl)cc1", "note": "[PYRIMETHAMINE]", "Bacterial Biotransformation": "Compound NOT metabolized"}
{"settings": "human gut metagenome, 24 h, 2 µM", "remark": "another data set of the same source"}
{"smiles": "CNCCC(Oc1ccc(C(F)(F)F)cc1)c1ccccc1", "note": "(stereo not given) [FLUOXETINE]", "Bacterial Biotransformation": "Compound metabolized"}
{"smiles": "CCc1nc(N)nc(N)c1-c1ccc(Cl)cc1", "note": "[PYRIMETHAMINE]", "Bacterial Biotransformation": "Compound metabolized"}
{"settings": "human gut metagenome, 24 h, 2 µM", "remark": "another data set of the same source"}
{"smiles": "CNCCC(Oc1ccc(C(F)(F)F)cc1)c1ccccc1", "note": "(stereo not given) [FLUOXETINE]", "Bacterial Biotransformation": "Compound NOT metabolized"}
{"smiles": "CCc1nc(N)nc(N)c1-c1ccc(Cl)cc1", "note": "[PYRIMETHAMINE]", "Bacterial Biotransformation": "Compound metabolized"}
{"experiment": "as §1, with “Z-007” for “WLS-006”, “rat” for “human”, “ERS12561807” for “ERS12561741”", "settings": "2 µM"}
{"smiles": "CNCCC(Oc1ccc(C(F)(F)F)cc1)c1ccccc1", "note": "(stereo not given) [FLUOXETINE]", "Bacterial Biotransformation": "Compound NOT metabolized"}
{"smiles": "CCc1nc(N)nc(N)c1-c1ccc(Cl)cc1", "note": "[PYRIMETHAMINE]", "Bacterial Biotransformation": "Compound NOT metabolized"}
{"settings": "human gut metagenome, 24 h, 2 µM", "remark": "another data set of the same source"}
{"smiles": "CNCCC(Oc1ccc(C(F)(F)F)cc1)c1ccccc1", "note": "(stereo not given) [FLUOXETINE]", "Bacterial Biotransformation": "Compound NOT metabolized"}
{"smiles": "CCc1nc(N)nc(N)c1-c1ccc(Cl)cc1", "note": "[PYRIMETHAMINE]", "Bacterial Biotransformation": "Compound metabolized"}
{"experiment": "as §1, with “Z-013” for “WLS-006”, “rabbit” for “human”, “ERS12561813” for “ERS12561741”", "settings": "2 µM"}
{"smiles": "CNCCC(Oc1ccc(C(F)(F)F)cc1)c1ccccc1", "note": "(stereo not given) [FLUOXETINE]", "Bacterial Biotransformation": "Compound NOT metabolized"}
{"smiles": "CCc1nc(N)nc(N)c1-c1ccc(Cl)cc1", "note": "[PYRIMETHAMINE]", "Bacterial Biotransformation": "Compound NOT metabolized"}
